Measurements: US9675070B2 (BAYER CROPSCIENCE AG, priority 2013, dated 2017)

How the values were obtained:
[1] = system: green peach aphid (Myzus persicae); experiment: Myzus persicae spray test (MYZUPE); format: in vivo; conditions: application rate 100 g/ha; Chinese cabbage leaf discs; after 6 days
Experimental: Myzus persicae—spray test (MYZUPE)
Solvents: 78 parts by weight of acetone
(§1) • 1.5 parts by weight of dimethylformamide Emulsifier: alkylaryl polyglycol ether
(§2) To produce a suitable preparation of active compound, 1 part by weight of active compound is dissolved using the stated parts by weight of solvent and made up with water comprising an emulsifier concentration of 1000 ppm until the desired concentration is reached. To produce further test concentrations, the preparation is diluted with emulsifier-containing water.
Discs of Chinese cabbage leaves (Brassica pekinensis) infested by all stages of the green peach aphid (Myzus persicae) are sprayed with an active compound preparation of the desired concentration.
After 6 days, the efficacy in % is determined. 100% here means that all of the aphids have been killed; 0% means that no aphids have been killed.

[2] = system: larvae of the mustard beetle (Phaedon cochleariae); experiment: Phaedon cochleariae spray test (PHAECO); format: in vivo; conditions: application rate 100 g/ha; Chinese cabbage leaf discs; after 7 days
Experimental: Phaedon cochleariae—Spray Test (PHAECO)
(§3) Solvents: 78.0 parts by weight of acetone
as §1, §2
After 7 days, the efficacy in % is determined. 100% means that all of the beetle larvae have been killed; 0% means that none of the beetle larvae have been killed.

[3] = system: greenhouse red spider mite (Tetranychus urticae), OP-resistant; experiment: Tetranychus urticae spray test, OP-resistant (TETRUR); format: in vivo; conditions: application rate 100 g/ha; bean leaf discs; after 6 days
Experimental: Tetranychus urticae—Spray Test, OP-Resistant (TETRUR)
as §3, §1, §2
Discs of bean leaves (Phaseolus vulgaris) which are infested by all stages of the greenhouse red spider mite (Tetranychus urticae) are sprayed with an active compound preparation of the desired concentration.
After 6 days, the efficacy in % is determined. 100% means that all of the spider mites have been killed; 0% means that none of the spider mites have been killed.

[4] = system: caterpillars of the armyworm (Spodoptera frugiperda); experiment: Spodoptera frugiperda spray test (SPODFR); format: in vivo; conditions: application rate 100 g/ha; maize leaf discs; after 7 days
Experimental: Spodoptera frugiperda—Spray Test (SPODFR)
as §3, §1, §2
Leaf discs of maize (Zea mays) are sprayed with an active compound preparation of the desired concentration and, after drying, populated with caterpillars of the armyworm (Spodoptera frugiperda).
After 7 days, the efficacy in % is determined. 100% means that all of the caterpillars have been killed; 0% means that none of the caterpillars have been killed.

[5] = system: southern root-knot nematode (Meloidogyne incognita); experiment: Meloidogyne incognita test (MELGIN); format: in vivo; conditions: application rate 20 ppm; lettuce; after 14 days
Experimental: Meloidogyne incognita Test (MELGIN) Solvent: 125.0 parts by weight of acetone To prepare a suitable active compound preparation, 1 part by weight of active compound is mixed with the stated amount of solvent and the concentrate is diluted with water to the desired concentration. Vessels are filled with sand, active compound solution, an egg/larvae suspension of the southern root-knot nematode (Meloidogyne incognita) and lettuce seeds. The lettuce seeds germinate and the plants develop. On the roots, galls are formed. After 14 days, the nematicidal efficacy in % is determined by the formation of galls. 100% means that no galls have been found; 0% means that the number of galls on the treated plants corresponds to the untreated control.

[6] = log P determination by HPLC on reversed-phase column (C18), EEC Directive 79/831 Annex V.A8; format: physicochemical; conditions: method a): Agilent 1100 LC, Zorbax Eclipse Plus C18, acetonitrile/water with formic acid, gradient 10-95% in 4.25 min, 55° C.
Experimental: Agilent 1100 LC system; 50*4.6 Zorbax Eclipse Plus C18 1.8 micron; mobile phase A: acetonitrile (0.1% formic acid); mobile phase B: water (0.09% formic acid); linear gradient from 10% acetonitrile to 95% acetonitrile in 4.25 min, then 95% acetonitrile for a further 1.25 min; oven temperature 55° C.; flow rate: 2.0 ml/min. Mass detection is carried out via an Agilend MSD system.
^a)Unless indicated otherwise, the following method was used to determine the log P values and masses: The determination of the given log P values was carried out in accordance with EEC Directive 79/831 Annex V.A8 by HPLC (High Performance Liquid Chromatography) on a reversed-phase column (C18). Agilent 1100 LC system; 50*4.6 Zorbax Eclipse Plus C18 1.8 micron; mobile phase A: acetonitrile (0.1% formic acid); mobile phase B: water (0.09% formic acid); linear gradient from 10% acetonitrile to 95% acetonitrile in 4.25 min, then 95% acetonitrile for a further 1.25 min; oven temperature 55° C.; flow rate: 2.0 ml/min. Mass detection is carried out via an Agilend MSD system. ^b)Note for the alternative method for determining log P values and masses: The stated log P values were determined in accordance with EEC Directive 79/831 Annex V.A8 by HPLC (High Performance Liquid Chromatography) using a reversed-phase column (C18). Waters ACQUITY UPLC-MS system; 2.1*50 mm Zorbax Eclipse Plus C18 1.8 μm 600 bar; injection volume: 0.5 ul about 1000 ppm; mobile phase A: acetonitrile (0.1% formic acid); mobile phase B: water (0.085% formic acid); linear gradient from 10% acetonitrile to 95% acetonitrile in 1.5 min, then 95% acetonitrile for a further 0.5 min; oven temperature 60° C.; flow rate: 1.0 ml/min. Mass detection is carried out via a Waters SQD system.

[7] = system: engorged adult female cattle ticks (Boophilus microplus); experiment: Boophilus microplus injection test (BOOPMI Inj); format: in vivo; conditions: application rate 20 μg/animal; injection into abdomen; assessed after 7 days
Experimental: Boophilus microplus Injection Test (BOOPMI Inj)
(§4) Solvent: dimethyl sulphoxide
To produce a suitable preparation of active compound, 10 mg of active compound are mixed with 0.5 ml of solvent, and the concentrate is diluted with solvent to the desired concentration.
1 μl of the active compound solution is injected into the abdomen of 5 engorged adult female cattle ticks (Boophilus microplus). The animals are transferred into dishes and kept in a climate-controlled room.
(§5) The activity is assessed after 7 days by laying of fertile eggs. Eggs whose fertility is not visible from the outside are stored in a climate-controlled cabinet until the larvae hatch after about 42 days. An efficacy of 100% means that none of the ticks has laid any fertile eggs; 0% means that all eggs are fertile.

[8] = system: L1 larvae of the Australian sheep blowfly (Lucilia cuprina); experiment: Lucilia cuprina test (LUCICU); format: in vivo; conditions: application rate 100 ppm; minced horsemeat; after 2 days
Experimental: Lucilia cuprina Test (LUCICU) Solvent: dimethyl sulphoxide To produce a suitable preparation of active compound, 10 mg of active compound are mixed with 0.5 ml of dimethyl sulphoxide, and the concentrate is diluted with water to the desired concentration. About 20 L1 larvae of the Australian sheep blowfly (Lucilia cuprina) are transferred into a test vessel containing minced horsemeat and the active compound preparation of the desired concentration. After 2 days, the kill in % is determined. 100% means that all of the larvae have been killed; 0% means that none of the larvae have been killed.

[9] = system: adult cat fleas (Ctenocephalides felis); experiment: Ctenocephalides felis oral test (CTECFE); format: in vivo; conditions: application rate 100 ppm in citrated cattle blood; after 2 days
Experimental: Ctenocephalides felis-Oral Test ([…]) Solvent: dimethyl sulphoxide To produce a suitable preparation of active compound, 10 mg of active compound are mixed with 0.5 ml of dimethyl sulphoxide. Dilution with citrated cattle blood gives the desired concentration. About 20 unfed adult cat fleas (Ctenocephalides felis) are placed into a chamber which is closed at the top and bottom with gauze. A metal cylinder whose bottom end is closed with a parafilm is placed onto the chamber. The cylinder contains the blood/active ingredient preparation, which can be imbibed by the fleas through the parafilm membrane. After 2 days, the kill in % is determined. 100% means that all of the fleas have been killed; 0% means that none of the fleas have been killed.

[10] = system: adult houseflies (Musca domestica); experiment: Musca domestica test (MUSCDO); format: in vivo; conditions: application rate 100 ppm; after 2 days
Experimental: Musca domestica Test (MUSCDO) Solvents: dimethyl sulphoxide To produce a suitable preparation of active compound, 10 mg of active compound are mixed with 0.5 ml of dimethyl sulphoxide, and the concentrate is diluted with water to the desired concentration. Vessels containing a sponge treated with sugar solution and the active compound preparation of the desired concentration are populated with 10 adult houseflies (Musca domestica). After 2 days, the kill in % is determined. 100% means that all of the flies have been killed; 0% means that none of the flies have been killed.

[11] = system: Tick nymphs (Amblyomma hebraeum); experiment: Amblyomma hebaraeum test (AMBYHE), tick nymph immersion; format: in vivo; conditions: application rate 100 ppm; immersion one minute; after 42 days
Experimental: Amblyomma hebaraeum Test (AMBYHE) Solvent: dimethyl sulphoxide To produce a suitable preparation of active compound, 10 mg of active compound are mixed with 0.5 ml of dimethyl sulphoxide, and the concentrate is diluted with water to the desired concentration. Tick nymphs (Amblyomma hebraeum) are placed into perforated plastic beakers and immersed in the desired concentration for one minute. The ticks are transferred on filter paper into a Petri dish and stored in a climate-controlled cabinet. After 42 days, the kill in % is determined. 100% means that all of the ticks have been killed; 0% means that none of the ticks have been killed.

[12] = system: cattle ticks (Boophilus microplus) Parkhurst strain, SP-resistant; experiment: Boophilus microplus dip test (BOOPMI Dip); format: in vivo; conditions: application rate 100 ppm, assessed after 7 days
Experimental: Boophilus microplus—Dip Test (BOOPMI Dip)
Test animals: cattle ticks (Boophilus microplus) Parkhurst strain, SP-resistant
as §4
10 mg of active compound are dissolved in 0.5 ml of dimethyl sulphoxide. To prepare a suitable formulation, the active compound solution is diluted with water to the concentration desired in each case.
This active compound preparation is pipetted into tubes. 8-10 adult engorged female cattle ticks (Boophilus microplus) are transferred into a further tube with holes. The tube is immersed into the active compound formulation, and all ticks are completely wetted. After the liquid has run out, the ticks are transferred on filter discs into plastic dishes and stored in a climate-controlled room.
as §5

SMILES | efficacy in % [1] [%] | efficacy in % [2] [%] | efficacy in % [3] [%] | efficacy in % [4] [%] | nematicidal efficacy in % (formation of galls) [5] [%] | chromatographic logP [6] | efficacy (no laying of fertile eggs) [7] [%] | kill in % [8] [%] | kill in % [9] [%] | kill in % [10] [%] | kill in % [11] [%] | efficacy (no laying of fertile eggs) [12] [%]
CC(F)C(=O)NCc1cc(-c2cnn(-c3c(C(F)(F)F)c(C(F)(F)C(F)(F)F)nn3C)c2)ccc1F (racemic) [Ic-22] | 90 | 100 | 100 | 83 |  |  |  |  |  |  |  | 
CC(=O)NCc1cncc(-c2cnn(-c3c(C(F)(F)F)c(C(F)(F)C(F)(F)F)nn3C)c2)c1 [Ic-8] | 90 | 100 | 90 |  |  |  |  |  |  |  |  | 
CCC(=O)NCc1cccc(-c2ncn(-c3c(C(F)(F)F)c(C(F)(F)C(F)(F)F)nn3C)n2)c1 [Ie-1] |  |  |  |  | 90 |  |  |  |  |  |  | 
Cn1nc(C(F)(F)C(F)(F)F)c(C(F)(F)F)c1-n1cc(-c2cccc(CNC(=O)OC(C)(C)C)c2)cn1 [Ic-18, tert-butyl {3-[2′-methyl-5′-(pentafluoroethyl)-4′-(trifluoromethyl)-2′H-1,3′-bipyrazol-4-yl]benzyl}carbamate] | 100 |  |  |  |  | 4.74 | 100 |  |  |  |  | 
CCC(=O)NCc1cncc(-c2cnn(-c3c(C(F)(F)F)c(C(F)(F)C(F)(F)F)nn3C)c2)c1 [Ic-26] | 100 | 100 | 90 | 83 |  |  |  |  |  |  |  | 
CCC(=O)NC(C)c1cccc(-c2cnn(-c3c(C(F)(F)F)c(C(F)(F)C(F)(F)F)nn3C)c2)c1 (stereo not shown) [Ic-33] | 90 | 100 | 100 |  |  |  |  |  |  |  |  | 
Cn1nc(C(F)(F)C(F)(F)F)c(C(F)(F)F)c1-n1cc(-c2ccc(F)c(CNC(=O)c3ccsc3)c2)cn1 [Ic-23] |  | 100 |  |  | 90 |  | 100 | 95 |  |  |  | 
Cn1nc(C(F)(F)C(F)(F)F)c(C(F)(F)F)c1-n1cc(-c2ccc(F)c(CNC(=O)Cc3cccs3)c2)cn1 [Ic-7] |  | 100 | 100 | 83 | 90 |  | 100 | 100 | 90 |  |  | 
CCC(=O)NCc1cccc(-c2cnn(-c3c(C(F)(F)F)c(C(F)(F)C(F)(F)F)nn3C)c2)c1 [Ic-1, N-{3-[2′-methyl-5′-(pentafluoroethyl)-4′-(trifluoromethyl)-2′H-1,3′-bipyrazol-4-yl]benzyl}propanamide] |  | 100 | 90 | 100 | 90 | 3.59 | 100 | 100 | 100 | 100 | 100 | 100
